Values quoted from earlier work, collected in patent publication US20080269311A1, “Combination of Dpp-Iv Inhibitors and Compounds Modulating 5-Ht3 and/or 5-Ht4 Receptors” (priority 2004, published 2008).

Biological target: T1, 5-HT3 receptor subtype (Homo sapiens, UniProt P46098)
T1 sequence (P46098 24-478): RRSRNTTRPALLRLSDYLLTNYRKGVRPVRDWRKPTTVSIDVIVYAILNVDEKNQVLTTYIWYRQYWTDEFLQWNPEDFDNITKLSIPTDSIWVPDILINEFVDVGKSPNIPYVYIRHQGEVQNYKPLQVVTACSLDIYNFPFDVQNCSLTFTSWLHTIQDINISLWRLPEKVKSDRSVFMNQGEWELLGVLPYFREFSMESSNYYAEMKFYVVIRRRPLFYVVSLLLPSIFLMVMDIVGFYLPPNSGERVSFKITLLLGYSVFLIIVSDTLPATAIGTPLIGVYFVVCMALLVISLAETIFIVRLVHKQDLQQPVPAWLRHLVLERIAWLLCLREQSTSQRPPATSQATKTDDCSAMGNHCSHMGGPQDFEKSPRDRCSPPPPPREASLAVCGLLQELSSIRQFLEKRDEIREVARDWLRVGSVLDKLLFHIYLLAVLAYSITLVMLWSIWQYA

SMILES: CCCCCNC(=N)NN=Cc1c[nH]c2ccc(OC)cc12 [Tegaserod, 3-(5-methoxy-1H-indol-3-yl-methylene)-N-pentylcarbazimidamide]
- binding to or stimulation of the 5-HT3 receptor subtype (selectivity): does neither bind to nor stimulate
